Laboratory results from ChEMBL document CHEMBL6092136, “Design, classification, and adverse effects of NSAIDs: A review on recent advancements” (Bioorg Med Chem, 2024).

Tests used:
Ovis aries = organism: Ovis aries; assay: Selectivity index, ratio of IC50 for inhibition of ovine COX-1 to IC50 for inhibition of ovine COX-2
Rattus norvegicus [1] = assay: Antiinflammatory activity in formalin-induced paw edema in Wistar albino rat model assessed as reduction in paw edema volume at 18 mg/kg, po administered once daily via gavage by 7 days; format: functional; parameters: scale not given: the % may be the effect or the level left; settings: time 7 day
[2] = Selectivity index, ratio of IC50 for COX-2 (unknown origin) to IC50 for COX-1 (unknown origin)
[3] = Inhibition of soya bean 15-LOX by enzyme immune assay; parameters: species or system Glycine max
Rattus norvegicus [4] = assay: Acute ulcerogenic activity in Albino Wistar rat assessed as ulcer index at 18 mg/kg via oral gavage once daily for 3 days; format: toxicity, organism-based; settings: in vivo, 72 h, time 3 day

Compound	Ratio IC50 (Ovis aries)	other results
CSc1nn(C(=O)c2c(C)nn(-c3ccc(S(N)(=O)=O)cc3)c2N)c(N)c1C#N	247	
CCCn1c(-c2ccc(Cl)cc2)cs/c1=N\NC(=O)Cn1nc(C)cc1C		Activity (Rattus norvegicus [1]): 97.3%
CSc1nn(C(=O)c2cnn(-c3ccc(S(C)(=O)=O)cc3)c2N)c(N)c1C#N	247	
COc1ccc(/C(N)=N/OC(=O)C(C)c2ccc3cc(OC)ccc3c2)cc1 (configuration not stated)		Ratio IC50 [2]: 13
Cc1ccc(Cl)c(Nc2ccccc2C(=O)O)c1Cl		IC50 [3]: 5.64 µM
COc1ccc2cc(C(C)C(=O)O/N=C(\N)c3ccc(OC)c(OC)c3)ccc2c1 (configuration not stated)		Ratio IC50 [2]: 13
COc1ccc(-n2c(-c3ccc(C)cc3)cs/c2=N\NC(=O)Cn2nc(C)cc2-c2ccc(Cl)cc2)cc1		UI (Rattus norvegicus [4]): 0
CCOC(=O)c1cnn(C(=O)c2cnn(-c3ccc(S(C)(=O)=O)cc3)c2N)c1N	247	
Cc1cc(C)n(C(=O)c2cnn(-c3ccc(S(C)(=O)=O)cc3)c2N)n1	247	
CCOC(=O)c1cnn(C(=O)c2c(C)nn(-c3ccc(S(C)(=O)=O)cc3)c2N)c1N	247	
CCOC(=O)c1c(C)nn(C(=O)c2cnn(-c3ccc(S(C)(=O)=O)cc3)c2N)c1N	247	
COc1ccc2cc(C(C)C(=O)O/N=C(\N)c3ccc(Cl)cc3)ccc2c1 (configuration not stated)		Ratio IC50 [2]: 13
